The source of these data is patent US10696622B2, “Synthesis of N-vinyl carboxylic acid amides” (Taminco BVBA, priority 2016, dated 2020).

The data set is described as follows: Solubility in solvent, CIPAC Method MT 181 at 20° C. Format: physicochemical. From the text:
When used, the solvent introduced into first reaction zone 20 may be any suitable type of solvent. The solvent may include a single solvent, or it may comprise a mixture of two or more solvents. In some embodiments, the solvent may be selected based on its solubility with one or more of the starting materials in lines 110, 112, and/or 114, and/or with the reaction product produced within first reaction zone 20. For example, at least one of the starting materials introduced into and/or the product withdrawn from first reaction zone 20 may have a solubility of at least about 20, at least about 25, at least about 30, at least about 35, at least about 40, at least about 45, at least about 50, at least about 55 weight percent in the solvent introduced into first reaction zone 20. In addition, or the alternative, at least one of the reagents introduced into and/or the reaction product withdrawn from first reaction zone 20 may have a solubility of not more than about 80, not more than about 75, not more than about 70, not more than about 65 weight percent in the solvent introduced into first reaction zone 20. Solubility is measured at 20° C. using CIPAC Method MT 181, unless otherwise noted.

As to `CC(O)NC=O` (centres unmarked) [1-hydroxyethylformamide], for the setting “in formamide”, the “solubility of 1-hydroxyethylformamide in formamide” value is “about 60 weight percent”. In addition, the “solubility of 1-hydroxyethylformamide in isopropanol” value (in isopropanol, measured as described above (20° C., CIPAC Method MT 181)) worked out at 20.1 weight percent.
